# Laboratory results published in patent US20070072903A1, “Altering the concentration of intracellular agents by p2x7 receptor modulation” (priority 2003, published 2007).
# T1: P2X7 receptor (Rattus norvegicus, UniProt Q64663)
# T1 construct: expressed in transfected cells; transiently co-transfected with MDR1 cDNA
# T1 sequence (Q64663 1-595): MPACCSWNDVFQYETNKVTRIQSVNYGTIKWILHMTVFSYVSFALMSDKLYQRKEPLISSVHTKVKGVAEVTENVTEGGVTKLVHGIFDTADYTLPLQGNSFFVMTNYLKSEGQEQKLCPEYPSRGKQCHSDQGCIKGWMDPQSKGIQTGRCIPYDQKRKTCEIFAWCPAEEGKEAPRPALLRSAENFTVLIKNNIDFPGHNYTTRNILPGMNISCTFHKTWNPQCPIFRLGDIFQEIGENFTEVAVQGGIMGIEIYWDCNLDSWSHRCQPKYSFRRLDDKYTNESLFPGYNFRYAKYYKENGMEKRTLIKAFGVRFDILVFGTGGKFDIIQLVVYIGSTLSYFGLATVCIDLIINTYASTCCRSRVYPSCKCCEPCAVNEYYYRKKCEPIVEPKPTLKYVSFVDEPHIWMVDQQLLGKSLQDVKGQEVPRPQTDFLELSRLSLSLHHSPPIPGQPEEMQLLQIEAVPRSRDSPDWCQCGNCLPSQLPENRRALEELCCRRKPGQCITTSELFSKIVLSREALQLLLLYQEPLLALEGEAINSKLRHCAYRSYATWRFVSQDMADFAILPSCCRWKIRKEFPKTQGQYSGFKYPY
# T2: P2X7 receptor (Mus musculus, UniProt Q9Z1M0)
# T2 construct: Murine mesenteric lymph nodes (10^7/ml) were disaggregated in DMEM; from tissue; host or cells: murine mesenteric lymph node lymphocytes (CD4+, CD8+ T cells, B cells)
# T2 sequence (Q9Z1M0 1-595): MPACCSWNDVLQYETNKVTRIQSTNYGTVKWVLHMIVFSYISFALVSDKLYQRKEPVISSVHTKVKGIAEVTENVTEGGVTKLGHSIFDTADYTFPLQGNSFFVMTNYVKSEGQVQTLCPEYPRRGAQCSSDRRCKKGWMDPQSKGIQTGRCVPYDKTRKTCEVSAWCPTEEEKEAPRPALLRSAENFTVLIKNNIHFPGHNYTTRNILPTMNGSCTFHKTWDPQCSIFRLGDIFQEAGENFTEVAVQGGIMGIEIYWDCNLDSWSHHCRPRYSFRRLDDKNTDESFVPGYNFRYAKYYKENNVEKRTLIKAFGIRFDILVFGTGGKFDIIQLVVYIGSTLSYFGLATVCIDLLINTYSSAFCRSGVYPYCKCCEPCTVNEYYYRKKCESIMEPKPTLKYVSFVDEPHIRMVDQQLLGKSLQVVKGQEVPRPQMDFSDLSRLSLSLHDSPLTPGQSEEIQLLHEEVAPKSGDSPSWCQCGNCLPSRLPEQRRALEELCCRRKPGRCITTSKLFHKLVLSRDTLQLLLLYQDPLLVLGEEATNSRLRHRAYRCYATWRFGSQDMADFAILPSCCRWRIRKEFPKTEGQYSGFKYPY
# B1: annexin V: substance which binds to phosphatidylserine and retains it in the outer leaflet (protein, UniProt P08758 2-320, looked up)
# Annexin A5: AQVLRGTVTDFPGFDERADAETLRKAMKGLGTDEESILTLLTSRSNAQRQEISAAFKTLFGRDLLDDLKSELTGKFEKLIVALMKPSRLYDAYELKHALKGAGTNEKVLTEIIASRTPEELRAIKQVYEEEYGSSLEDDVVGDTSGYYQRMLVVLLQANRDPDAGIDEAQVEQDAQALFQAGELKWGTDEEKFITIFGTRSVSHLRKVFDKYMTISGFQIEETIDRETSGNLEQLLLAVVKSIRSIPAYLAETLYYAMKGAGTDDHTLIRVMVSRSEIDLFNIRKEFRKNFATSLYSMIKGDTSGDYKKALLLLCGEDD
# Columns and labels:
# P2X7-HEK 293 cells = experiment: BODIPY-taxol uptake in HEK 293 and P2X7-HEK 293 cells; type: cell-based; details: 150 μM BzATP
# Experimental: (§1) NIH 3T3 cells stably transfected with the human MDR1 gene (Ueda et al, 1987 Proc. Natl. Acad. Sci. USA 84, 3004-3008) were a gift from Michael Gottesman (NIH, Bethesda) and were maintained in 1 μg/ml colchicine in Dulbecco's modified Eagle's medium (DMEM—Sigma). HEK 293 cells stably transfected with rP2X7 have been described elsewhere (Wilson et al, 2002 J. Biol. Chem. 277, 34017-34023). Transient transfection of HEK293 cells was performed using polyethyleneimine (Sigma), as described previously (Dixon et al, 2000 Hum. Mol. Genet. 9, 1209-1217). pMDR1-wt, which encodes wild-type P-gp, has also been described previously (Blott et al, 1999 EMBO J. 18, 6800-6808). Expression of the MDR1 gene product, P-gp, on transfected cells was determined by labelling of cells with UIC2^PE in the presence of cyclosporine A (Sigma), as described by Mechetner et al, (1997 Proc. Natl. Acad. Sci. 94, 12908-12913).
# (§2) To measure drug uptake the following fluorochromes were used (from Molecular Probes, Leiden, Netherlands, unless stated): 0.2 μM BODIPY-taxol (BT), 0.25 μM Rh123, 0.2 μM mitoxantrone (Sigma). PS exposure was monitored simultaneously in the same population of cells by increased binding of annexin V as follows. […] Cells were monitored for BT uptake or PS exposure continuously in real time for up to 15 minutes, as indicated. […]
# P2X7 receptor [1] = type: cell-based; details: HEK 293 cells expressing P-gp but lacking P2X7 receptors
# Experimental: as §1, §2
# P2X7 receptor [2] = target: T1, P2X7 receptor; type: cell-based; details: HEK 293 cells expressing both P-gp and P2X7 receptor
# Experimental: as §1, §2
# [3] = injected into the hindpaw of rats at 100 nmol/50 μl; cited from earlier work
# P2X7 receptor [4] = target: T2, P2X7 receptor; experiment: PS translocation (annexin V binding) in murine lymphocytes, real-time flow cytometry; type: cell-based
# Excerpt: Murine mesenteric lymph nodes (10^7/ml) were disaggregated in DMEM. To discriminate between different lymphocyte subsets, cells were stained with CD4^APC, CD4^CYCHROME, CD4^PE, CD4^FITC, CD8^APC, CD8^PE, CD8^PERCP, CD8^FITC, B220^APC (Becton Dickinson, Cailf.) antibodies as indicated. The fluorophore on antibodies used to identify CD4^+ and CD8^+T cells was varied in some experiments to avoid overlap between emission spectra of the antibody-conjugated fluorochromes and fluorescent transport substrates. Cells were washed with DMEM and analysed by flow cytometry (CellQuest software—Becton Dickinson). Live cells were gated by eye on the basis of forward scatter and side scatter. […]
# as §2, with “follows. Cells were equilibrated with annexin V^FITC, annexin V^PE, or annexin V^CY5 (AV—Becton Dickinson, Cailf.) together with propidium iodide (PI) for four minutes, and analysed by flow cytometry on a FACScalibur machine using CellQuest software (Becton Dickinson, Cailf.).” for “follows.”
# P-gp [5] = experiment: BODIPY-taxol uptake in mixed mdr1a/b-deficient and parental CD8+ lymphocytes; type: cell-based, mouse; details: mdr-deficient versus wild type CD8+ lymphocytes
# Excerpt: Mice were between 6 and 14 weeks of age. When experiments utilised FVB.mdr1a/b^−/− mice, age-matched FVB mice were used.
# In a further experiment, lymphocytes from mdr1a/b-deficient or parental mice (mdr1a/b^+/+) were labelled with anti-CD8^PE and anti-CD8^PERCP antibodies, respectively (to discriminate between CD8^+ cells from each mouse during subsequent analysis). […]
# [6] = system: plasma membrane permeability; experiment: Propidium uptake after BzATP stimulation (non-specific membrane permeability); type: cell-based, mouse; details: BzATP-mediated stimulation; data omitted for brevity
# P-gp [7] = experiment: BODIPY-taxol uptake in HEK 293 cells with or without P2X7, transiently transfected with MDR1; type: cell-based; details: HEK 293 cells expressing both P-gp and P2X7 receptor
# Experimental: To measure drug uptake the following fluorochromes were used (from Molecular Probes, Leiden, Netherlands, unless stated): 0.2 μM BODIPY-taxol (BT), 0.25 μM Rh123, 0.2 μM mitoxantrone (Sigma). PS exposure was monitored simultaneously in the same population of cells by increased binding of annexin V as follows. Cells were equilibrated with annexin V^FITC, annexin V^PE, or annexin V^CY5 (AV—Becton Dickinson, Cailf.) together with propidium iodide (PI) for four minutes, and analysed by flow cytometry on a FACScalibur machine using CellQuest software (Becton Dickinson, Cailf.). […] Cells were monitored for BT uptake or PS exposure continuously in real time for up to 15 minutes, as indicated. […]
# P-gp [8] = experiment: Rh123 uptake (P-gp activity) in murine lymphocytes, real-time flow cytometry; type: cell-based, mouse; details: 0.25 μM Rh123, 150 μM BzATP; CD4+, CD8+ and B cells
# Excerpt: Murine mesenteric lymph nodes (10^7/ml) were disaggregated in DMEM. To discriminate between different lymphocyte subsets, cells were stained with CD4^APC, CD4^CYCHROME, CD4^PE, CD4^FITC, CD8^APC, CD8^PE, CD8^PERCP, CD8^FITC, B220^APC (Becton Dickinson, Cailf.) antibodies as indicated. The fluorophore on antibodies used to identify CD4^+ and CD8^+T cells was varied in some experiments to avoid overlap between emission spectra of the antibody-conjugated fluorochromes and fluorescent transport substrates. Cells were washed with DMEM and analysed by flow cytometry (CellQuest software—Becton Dickinson). Live cells were gated by eye on the basis of forward scatter and side scatter. Lymphocytes lacking CD4 and CD8 were defined as B cells.
# Lymphocytes were labelled with anti-CD4^CYCHROME and anti-CD8^APC antibodies to discriminate between CD4^+T cells, CD8^+T cells and B cells (CD4^− CD8^−). The lymphocytes were incubated with annexin V^PE, and then 0.25 μM Rh123 and 150 μM BzATP were added sequentially (as indicated in the Figures by arrows).
# [9] = system: mdr1a/b-deficient CD4+ and CD8+ T cells; experiment: BODIPY-taxol uptake in mdr1a/b-deficient T cells; type: cell-based, mouse; details: 175 μM BzATP
# Experimental: To measure drug uptake the following fluorochromes were used (from Molecular Probes, Leiden, Netherlands, unless stated): 0.2 μM BODIPY-taxol (BT), 0.25 μM Rh123, 0.2 μM mitoxantrone (Sigma). PS exposure was monitored simultaneously in the same population of cells by increased binding of annexin V as follows. Cells were equilibrated with annexin V^FITC, annexin V^PE, or annexin V^CY5 (AV—Becton Dickinson, Cailf.) together with propidium iodide (PI) for four minutes, and analysed by flow cytometry on a FACScalibur machine using CellQuest software (Becton Dickinson, Cailf.). Baseline fluorescence was established for approximately one minute prior to addition of 150 μM (unless otherwise stated) 2′-3′-O-(4-benzoylbenzoyl)-adenosine 5′-triphosphate (BzATP, Sigma). Cells were monitored for BT uptake or PS exposure continuously in real time for up to 15 minutes, as indicated. Continuous line graphs of changes in annexin V binding and fluorochrome uptake were plotted using FCSPress software (FCSPress.com, Cambridge, UK).
# Mitoxantrone (Mx) or Mx plus BzATP, were added as indicted by arrows. Mitoxantrone uptake was measured as an increase in mean (±S.E.) fluorescence (FL-4 channel). […] BODIPY-taxol uptake was measured as an increase in mean (±S.E.) fluorescence (FL-1 channel). […] Only the responses of live cells (i.e. those excluding PI) were subsequently analysed.
# [10] = system: breast cancer resistance protein (abcg2); experiment: Mitoxantrone uptake in mdr1a/b-deficient lymphocytes; type: cell-based, mouse; details: 0.2 μM mitoxantrone
# P-gp [11] = experiment: BODIPY-taxol uptake in NIH3T3-MDR and parental NIH3T3 cells, continuous FACS analysis; type: cell-based, mouse; details: 175 μM BzATP, which lack the P2X7 receptor
# Experimental: To measure drug uptake the following fluorochromes were used (from Molecular Probes, Leiden, Netherlands, unless stated): 0.2 μM BODIPY-taxol (BT), 0.25 μM Rh123, 0.2 μM mitoxantrone (Sigma). […] Baseline fluorescence was established for approximately one minute prior to addition of 150 μM (unless otherwise stated) 2′-3′-O-(4-benzoylbenzoyl)-adenosine 5′-triphosphate (BzATP, Sigma). Cells were monitored for BT uptake or PS exposure continuously in real time for up to 15 minutes, as indicated.
# BODIPY-taxol (BT) and 175 μM BzATP were added to NIH3T3-MDR and parental NIH3T3 cells at times indicated by arrows. BT uptake was monitored by continuous FACS analysis, as an increase in fluorescence as a function of time.
# P-gp [12] = experiment: Annexin V trapping of PS after brief BzATP stimulation, BODIPY-taxol uptake in mdr1a/b-deficient and parental lymphocytes; type: cell-based, mouse; details: BzATP 45 seconds, washed, annexin V for 30 minutes to trap PS in the outer leaflet
# Experimental: In this example, the inventors compared the uptake of BODIPY-taxol by parental and mdr1a/b-deficient lymphocytes, briefly stimulated with BzATP either in the continuous presence of annexin V to ‘trap’ PS in the outer leaflet, or with annexin V added only shortly before acquisition. The results are shown in FIGS. 4A-D. The experiments were performed as described below. Lymphocytes from mdr1a/b-deficient or parental mice (mdr1a/b^+/+) were labelled with anti-CD8^PE and anti-CD8^CY antibodies, respectively (to discriminate between CD8^+ cells from each mouse during subsequent analysis). […] BODIPY-taxol uptake was then measured by real-time flow cytometry. Reduced BT uptake indicates enhanced P-gp activity; increased annexin^CY5 binding indicates increased PS translocation from the inner to outer leaflet of the membrane. […] As PS exposure in samples stained with annexin V for four minutes immediately following stimulation (not shown) was equivalent to that in cells incubated for 30 minutes, PS trapping by annexin V appeared to be effectively complete.
Molecule,rate of uptake of BODIPY-taxol (P2X7-HEK 293 cells),PS translocation (P2X7 receptor [1]),PS translocation (P2X7 receptor [2]),toxicity [3],"PS translocation (annexin V binding) (P2X7 receptor [4]; 150 μM BzATP, CD4+ T cells, CD8+ T cells and B cells)",PS translocation (P2X7 receptor [4]; mdr1a/b-deficient lymphocytes),BT uptake following BzATP treatment (P-gp [5]),uptake of propidium ions [6],BODIPY-taxol uptake (P-gp inhibition) (P-gp [7]),P-gp activity (uptake of Rh123) (P-gp [8]),rate of uptake of BODIPY-taxol [9],uptake of mitoxantrone [10],P-gp activity (BT accumulation) (P-gp [11]),restoration of P-gp activity (P-gp [12])
2′-3′-O-(4-benzoylbenzoyl)-adenosine 5′-triphosphate [BzATP],increased the rate of uptake,neither induced PS translocation,induced PS translocation,non-toxic,stimulated PS translocation with the order of responsiveness CD4^+ cells>CD8^+ T cells>>B cells,induced PS translocation,rapidly reached equivalence in the mdr-deficient and wild type cells,did not result in an increased uptake of propidium ions,increased BODIPY-taxol uptake,order of responsiveness was CD4^+>CD8^+>>B cells,increased the rate of uptake,markedly increased uptake of mitoxantrone,did not inhibit P-gp activity and thus did not increase BT accumulation,–
B1,–,–,–,–,–,–,–,–,–,–,–,–,–,prevents the restoration of P-gp activity
